Laboratory results reported in patent publication US20140243416A1, “Topical Antiandrogen Therapy for the Treatment of Becker's Nevus” (priority 2013, published 2014).

Columns and labels:
[1] = topical application; cited from earlier work
Becker's nevus = assay: Topical flutamide applied to a Becker's nevus (Example 1, single patient); format: in vivo, person; details: topical 4% solution, twice daily
Description: FIG. 1a (left) depicts a person with a Becker's nevus before the antiandrogen treatment as described in example 1. FIG. 1b (right) depicts a person after treatment with a topical antiandrogen, specifically topical flutamide. […] A topical 4% solution of flutamide was applied twice daily to a Becker's nevus. […] (FIG. 1)

Compound: CC(C)C(=O)Nc1ccc([N+](=O)[O-])c(C(F)(F)F)c1 [flutamide, methyl-N-[4-nitro-3-(trifluoromethyl)phenyl]-propanamide]
- absorption into the skin and systemic absorption [1]: systemic absorption is measurable
- cutaneous or systemic adverse effects (Becker's nevus): No cutaneous or systemic adverse effects
- pigmentary change in the normal skin surrounding the Becker's nevus (Becker's nevus; during treatment): no pigmentary change
- menstrual irregularities (Becker's nevus; patient-reported): denied any menstrual irregularities
